Data taken from US9249145B2, “Heterocyclic derivatives of pyrazol-4-yl-pyrrolo[2,3-d]pyrimidines as janus kinase inhibitors” (Incyte Holdings Corporation, priority 2009, dated 2016).
Counter-ions that a name gives are not always drawn. Like-named read-outs stand apart in the source and are kept apart here.

Assays:
Jak2 (a.a. 828-1132) = target: T1, Jak2 (a.a. 828-1132) (Homo sapiens, UniProt O60674); assay: In vitro JAK kinase assay (HTRF, phosphorylation of biotinylated peptide), JAK2; type: biochemical; settings: 1 mM ATP
T1 construct: Jak2 (a.a. 828-1132); His tag (N); made in house; host or cells: insect cells (baculovirus)
Protocol: (§1) Compounds herein were tested for inhibitory activity of JAK targets according to the following in vitro assay described in Park et al., Analytical Biochemistry 1999, 269, 94-104. The catalytic domains of human JAK1 (a.a. 837-1142), Jak2 (a.a. 828-1132) and Jak3 (a.a. 781-1124) with an N-terminal His tag were expressed using baculovirus in insect cells and purified. The catalytic activity of JAK1, JAK2 or JAK3 was assayed by measuring the phosphorylation of a biotinylated peptide. The phosphorylated peptide was detected by homogenous time resolved fluorescence (HTRF). IC50s of compounds were measured for each kinase in the 40 microL reactions that contain the enzyme, ATP and 500 nM peptide in 50 mM Tris (pH 7.8) buffer with 100 mM NaCl, 5 mM DTT, and 0.1 mg/mL (0.01%) BSA. The ATP concentration in the reactions was 90 μM for Jak1, 30 μM for Jak2 and 3 μM for Jak3 for Km conditions. For the 1 mM IC50 measurements, ATP concentration in the reactions was 1 mM. Reactions were carried out at room temperature for 1 hr and then stopped with 20 μL 45 mM EDTA, 300 nM SA-APC, 6 nM Eu-Py20 in assay buffer (Perkin Elmer, Boston, Mass.). Binding to the Europium labeled antibody took place for 40 minutes and HTRF signal was measured on a Fusion plate reader (Perkin Elmer, Boston, Mass.). See Tables 1, 2, 3, and 4 for data related to compounds of the invention.

[1] = target: T2, human JAK1 (a.a. 837-1142) (Homo sapiens, UniProt P23458); assay: In vitro JAK kinase assay (HTRF, phosphorylation of biotinylated peptide), JAK1; type: biochemical; settings: 1 mM ATP
T2 construct: The catalytic domains of human JAK1 (a.a. 837-1142); His tag (N); made in house; host or cells: insect cells (baculovirus)
Protocol: as §1

[2] = Examples 12-91, read-out: JAK2 IC50 (nM) @ 1 mM ATP
[3] = Examples 12-91, read-out: JAK1 IC50 (nM) @ 1 mM ATP
[4] = Examples 92-162, read-out: JAK2 IC50 (nM) @ 1 mM ATP
[5] = Examples 92-162, read-out: JAK1 IC50 (nM) @ 1 mM ATP

T1 sequence (O60674 828-1132): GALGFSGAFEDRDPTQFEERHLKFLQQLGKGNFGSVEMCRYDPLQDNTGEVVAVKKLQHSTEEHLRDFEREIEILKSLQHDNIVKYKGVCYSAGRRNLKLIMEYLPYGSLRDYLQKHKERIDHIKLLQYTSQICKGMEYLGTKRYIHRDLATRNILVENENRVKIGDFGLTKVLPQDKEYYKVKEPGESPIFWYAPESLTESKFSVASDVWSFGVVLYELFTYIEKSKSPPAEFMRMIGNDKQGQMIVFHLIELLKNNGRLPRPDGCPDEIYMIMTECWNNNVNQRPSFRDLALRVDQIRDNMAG
T2 sequence (P23458 849-1154): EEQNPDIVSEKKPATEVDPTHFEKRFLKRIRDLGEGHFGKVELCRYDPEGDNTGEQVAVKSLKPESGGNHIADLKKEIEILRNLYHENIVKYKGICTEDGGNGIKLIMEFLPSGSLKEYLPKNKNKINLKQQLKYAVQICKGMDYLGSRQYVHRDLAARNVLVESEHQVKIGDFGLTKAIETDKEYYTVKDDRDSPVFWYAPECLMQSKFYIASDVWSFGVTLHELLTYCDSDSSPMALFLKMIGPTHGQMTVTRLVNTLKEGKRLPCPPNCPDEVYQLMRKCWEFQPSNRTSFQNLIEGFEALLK

Row | Compound | IC50 (Jak2 (a.a. 828-1132); [2]) | IC50 [1, 3] | IC50 (Jak2 (a.a. 828-1132); [4]) | IC50 [1, 5] | other results
1 | 4-(4-(2-(4-(7H-pyrrolo[2,3-d]pyrimidin-4-yl)-1H-pyrazol-1-yl)-3-cyanopropyl)piperazine-1-carbonyl)-3-hydroxybenzonitrile [Example 77] | 10 to 50 nM | < 10 nM |  |  | 
2 | Cn1ccc(S(=O)(=O)N2CCN(CC(CF)n3cc(-c4ncnc5[nH]ccc45)cn3)CC2)n1 (racemic) [Example 10, (±)-4-(1-(1-fluoro-3-(4-(1-methyl-1H-pyrazol-3-ylsulfonyl)piperazin-1-yl)propan-2-yl)-1H-pyrazol-4-yl)-7H-pyrrolo[2,3-d]pyrimidine] |  |  |  |  | IC50 (Jak2 (a.a. 828-1132); Examples 1-11, read-out: IC50 (nM) @ 1 mM ATP JAK2): > 20 nM; IC50 ([1]; Examples 1-11, read-out: IC50 (nM) @ 1 mM ATP JAK1): < 10 nM
3 | C[C@@H]1CN(C(=O)c2ccc(C#N)cc2F)CCN1CC(CC#N)n1cc(-c2ncnc3[nH]ccc23)cn1 (single isomer, unassigned) [24, R-1] | > 100 nM | < 10 nM |  |  | 
4 | C[C@@H]1CN(C(=O)c2ccc(C#N)cc2F)CCN1CC(CC#N)n1cc(-c2ncnc3[nH]ccc23)cn1 (single isomer, unassigned) [24, R-2] | > 100 nM | > 100 nM |  |  | 
5 | C[C@H]1CN(C(=O)c2ccc(C#N)cc2F)CCN1CC(CC#N)n1cc(-c2ncnc3[nH]ccc23)cn1 (single isomer, unassigned) [25, S-1] | > 100 nM | > 100 nM |  |  | 
6 | C[C@H]1CN(C(=O)c2ccc(C#N)cc2F)CCN1CC(CC#N)n1cc(-c2ncnc3[nH]ccc23)cn1 (single isomer, unassigned) [25, S-2] | > 100 nM | < 10 nM |  |  | 
7 | N#CCC(CN1CCN(C(=O)c2ccc(C#N)cc2F)CC1CO)n1cc(-c2ncnc3[nH]ccc23)cn1 (single isomer, unassigned) [156—peak 1, 4-{[4-{3-cyano-2-[4-(7H-pyrrolo[2,3-d]pyrimidin-4-yl)-1H-pyrazol-1-yl]propyl}-3-(hydroxymethyl)piperazin-1-yl]carbonyl}-3-fluorobenzonitrile trifluoroacetate Salt] |  |  | > 100 nM | < 20 nM | 
8 | N#CCC(CN1CCN(C(=O)c2ccc(C#N)cc2F)CC1CO)n1cc(-c2ncnc3[nH]ccc23)cn1 (single isomer, unassigned) [156—peak 2, 4-{[4-{3-cyano-2-[4-(7H-pyrrolo[2,3-d]pyrimidin-4-yl)-1H-pyrazol-1-yl]propyl}-3-(hydroxymethyl)piperazin-1-yl]carbonyl}-3-fluorobenzonitrile trifluoroacetate Salt] |  |  | > 100 nM | > 100 nM | 
9 | N#CCC(CN1CCN(C(=O)c2ccc(C#N)cc2F)CC1CO)n1cc(-c2ncnc3[nH]ccc23)cn1 (single isomer, unassigned) [156—peak 3, 4-{[4-{3-cyano-2-[4-(7H-pyrrolo[2,3-d]pyrimidin-4-yl)-1H-pyrazol-1-yl]propyl}-3-(hydroxymethyl)piperazin-1-yl]carbonyl}-3-fluorobenzonitrile trifluoroacetate Salt] |  |  | > 100 nM | 50 to 100 nM | 
10 | N#CCC(CN1CCN(C(=O)c2ccc(C#N)cc2F)CC1CO)n1cc(-c2ncnc3[nH]ccc23)cn1 (single isomer, unassigned) [156—peak 4, 4-{[4-{3-cyano-2-[4-(7H-pyrrolo[2,3-d]pyrimidin-4-yl)-1H-pyrazol-1-yl]propyl}-3-(hydroxymethyl)piperazin-1-yl]carbonyl}-3-fluorobenzonitrile trifluoroacetate Salt] |  |  | > 100 nM | > 100 nM | 
11 | N#CCC(CN1CCN(C(=O)c2ccc(C#N)cc2F)CC1)n1cc(-c2ncnc3[nH]ccc23)cn1 (single isomer, unassigned) [Example 12, 4-[(4-{3-cyano-2-[4-(7H-pyrrolo[2,3-d]pyrimidin-4-yl)-1H-pyrazol-1-yl]propyl}piperazin-1-yl)carbonyl]-3-fluorobenzonitrile trifluoroacetate Salt] | 50 to 100 nM | < 10 nM |  |  | 
12 | N#CCC(CN1CCN(C(=O)c2ccc(C#N)cc2F)CC1)n1ccc(-c2ncnc3[nH]ccc23)c1 (single isomer, unassigned) [Example 13, 4-[(4-{3-cyano-2-[3-(7H-pyrrolo[2,3-d]pyrimidin-4-yl)-1H-pyrrol-1-yl]propyl}piperazin-1-yl)carbonyl]-3-fluorobenzonitrile trifluoroacetate Salt] | 50 to 100 nM | < 10 nM |  |  | 

Continued, in another order:

Row | IC50 (Jak2 (a.a. 828-1132); [2]) | IC50 [1, 3] | IC50 (Jak2 (a.a. 828-1132); [4]) | IC50 [1, 5] | Compound | other results
13 |  |  | > 100 nM | 20 to 50 nM | N#CCC(CN1CCN(C(=O)c2ccc(C#N)cc2F)C(CO)C1)n1cc(-c2ncnc3[nH]ccc23)cn1 (mixture of isomers) [Example 160, 4-{[4-{3-cyano-2-[4-(7H-pyrrolo[2,3-d]pyrimidin-4-yl)-1H-pyrazol-1-yl]propyl}-2-(hydroxymethyl)piperazin-1-yl]carbonyl}-3-fluorobenzonitrile] | 
14 |  |  | > 100 nM | 50 to 100 nM | C[C@@H]1CN(CC(CC#N)n2cc(-c3ncnc4[nH]ccc34)cn2)CCN1C(=O)c1ccc(C#N)cc1F (mixture of isomers) [Example 161, 4-[((2R)-4-{3-cyano-2-[4-(7H-pyrrolo[2,3-d]pyrimidin-4-yl)-1H-pyrazol-1-yl]propyl}-2-methylpiperazin-1-yl)carbonyl]-3-fluorobenzonitrile] | 
15 |  |  | > 100 nM | 20 to 50 nM | C[C@H]1CN(CC(CC#N)n2cc(-c3ncnc4[nH]ccc34)cn2)CCN1C(=O)c1ccc(C#N)cc1F (mixture of isomers) [Example 162, 4-[((2S)-4-{3-cyano-2-[4-(7H-pyrrolo[2,3-d]pyrimidin-4-yl)-1H-pyrazol-1-yl]propyl}-2-methylpiperazin-1-yl)carbonyl]-3-fluorobenzonitrile] | 
16 |  |  | > 100 nM | > 100 nM | COCC1CN(C(=O)c2ccc(C#N)cc2F)CCN1CC(CC#N)n1cc(-c2ncnc3[nH]ccc23)cn1 (single isomer, unassigned) [Example 157—peak 1, 4-{[4-{3-cyano-2-[4-(7H-pyrrolo[2,3-d]pyrimidin-4-yl)-1H-pyrazol-1-yl]propyl}-3-(methoxymethyl)piperazin-1-yl]carbonyl}-3-fluorobenzonitrile] | 
17 |  |  | > 100 nM | < 20 nM | COCC1CN(C(=O)c2ccc(C#N)cc2F)CCN1CC(CC#N)n1cc(-c2ncnc3[nH]ccc23)cn1 (single isomer, unassigned) [Example 157—peak 2, 4-{[4-{3-cyano-2-[4-(7H-pyrrolo[2,3-d]pyrimidin-4-yl)-1H-pyrazol-1-yl]propyl}-3-(methoxymethyl)piperazin-1-yl]carbonyl}-3-fluorobenzonitrile] | 
18 |  |  | > 100 nM | > 100 nM | COCC1CN(C(=O)c2ccc(C#N)cc2F)CCN1CC(CC#N)n1cc(-c2ncnc3[nH]ccc23)cn1 (single isomer, unassigned) [Example 157—peak 3, 4-{[4-{3-cyano-2-[4-(7H-pyrrolo[2,3-d]pyrimidin-4-yl)-1H-pyrazol-1-yl]propyl}-3-(methoxymethyl)piperazin-1-yl]carbonyl}-3-fluorobenzonitrile] | 
19 |  |  | > 100 nM | < 20 nM | N#CCC(CN1CCN(C(=O)c2ccc(C#N)cc2F)CC1CF)n1cc(-c2ncnc3[nH]ccc23)cn1 (single isomer, unassigned) [Example 158, 4-[(4-{3-cyano-2-[4-(7H-pyrrolo[2,3-d]pyrimidin-4-yl)-1H-pyrazol-1-yl]propyl}-3-fluoromethylpiperazin-1-yl)carbonyl]-3-fluorobenzonitrile] | 
